The values below come from US6849594B1, “Purification and use of human recombinant cartilage oligomeric matrix protein” (priority 1999, dated 2005).

One assay deals with T1, hCOMP (Homo sapiens, UniProt P49747).
T1 construct: transfected with full length human COMP cDNA, they were able to process and secrete hCOMP; made in house
The assay can be described thus: Affinity co-electrophoresis (ACE) binding of hCOMP to glycosaminoglycans. From the text: Affinity co-electrophoresis (ACE) was used to quantify the binding of hCOMP to heparin and other GAGs, including chondroitin sulfates from cartilage. Values are given in nM, and in cases where a standard deviation is reported, represent the mean of two determinations.
Affinity co-electrophoresis (ACE) (San Antonio et al., 1993) was used to quantify the binding of hCOMP to heparin and other commercially available GAGs derived from tissue sources, including chondroitin sulfates from cartilage, and values of Kd were measured. […] This is in agreement with our observation that hCOMP binds to heparin-Sepharose. […] To better ascertain potential roles of GAGs and proteoglycans in COMP function, heparan sulfate, keratan sulfate, and three chondroitin sulfates (chondroitin-6-sulfate, C6S; chondroitin-4-sulfate; C4S; and dermatan sulfate, DS) were tested for binding to hCOMP in the presence of 2 mM calcium using ACE (Table 1).
To further determine whether the conformation of the calcium-binding type 3 repeats was critical to GAG binding, hCOMP was tested for binding to heparin and C6S in the presence of 5 mM EDTA. […] While heparin binding was reduced only 3- to 5-fold by EDTA treatment, C6S binding appeared to be abolished by this treatment.

A short description of assay [1]: Direct calcium binding by equilibrium dialysis using 45CaCl2. Particulars: 0.3 mM free calcium concentration; mean±SD. Here is the method: Direct calcium binding to COMP was measured by equilibrium dialysis using ^45CaCl2. Briefly, TSP1 and COMP were dialyzed in Slide-A-Lyzer dialysis units (Pierce, Rockford, Ill.) against dialysis buffer containing 0.3 mM CaCl2 and […] of ^45CaCl2. At the end of dialysis, 10 μl of protein sample and dialysis buffer were taken out for scintillation counting and protein determination. The number of calcium ions bound was calculated. At 0.3 mM free calcium concentration, each TSP1 subunit bound 10±2 calcium ions (mean±SD of four data points). This is in agreement with previous reports where 11-12 calcium ions were reported to bind to each TSP1 subunit (Lawler and Simons, 1983; Misenheimer and Mosher, 1995). Under the same conditions, each subunit of COMP bound 11±1 calcium ions. This is the first time it is shown that COMP binds calcium ions, and the result is consistent with the presence of highly homologous type 3 calcium binding repeats in COMP and other TSP family members.
Direct calcium binding to COMP was measured by equilibrium dialysis using ^45CaCl2. Briefly, TSP1 and COMP were dialyzed in Slide-A-Lyzer dialysis units (Pierce, Rockford, Ill.) against dialysis buffer containing 0.3 mM CaCl2 and 10 mCi/ml of ^45CaCl2. […] The number of calcium ions bound was calculated. […]
On the technique in general: In equilibrium dialysis free small molecules cross a membrane that holds back macromolecules.

For assay [2], the system named is TC1a cells (chondrocyte-derived cell line), monolayer culture. The assay can be described thus: Attachment of TC1a cells grown in monolayer to coated protein. The class given is cell-based, human. Here is the method:
To prepare cells grown in monolayer for attachment assays, cells grown in 10 cm tissue culture plates were washed twice with HEPES buffered saline (HBS), and treated with 1 ml of 0.1 mg/ml TPCK-treated trypsin (Worthington, Lakewood, N.J.) in HBS at 37° C. for 5 minutes. Trypsinization was stopped with 2 ml of 0.5 mg/ml soybean trypsin inhibitor (Sigma) in HBS with 1 mM CaCl2 (HBS/C). Cells were flushed off the plate as a single cell suspension, sedimented and washed twice with trypsin inhibitor solution. Subsequently, cells were resuspended in HBS/C containing 1% heat-inactivated bovine serum albumin (HI-BSA) at a final concentration of 2-2.5×10^5 cells/ml and used for attachment assays.
Immulon II 96-well plates (DYNEX, Chantilly, Va.) were coated with COMP at various concentrations in HBS/C or HBS containing 5 mM EDTA (HBS/E) at 4° C. overnight. The plates were then blocked with 1% HI-BSA in HBS/C or HBS/E, respectively, for 30 minutes at 37° C. After blocking, some wells coated with proteins in HBS/E were reduced with 20 mM dithiothreitol (DTT) in HBS/E for 30 minutes at 22° C. Wells were washed 4 times with HBS/C before addition of 100 μl of cells to each well and incubated for 2 hours at 37° C. At the end of the incubation, after examination under phase contrast microscopy, the plate was washed 3 times with HBS/C. The amount of cells attached to each well was quantified using CyQuant kit (Molecular Probes, Eugene, Oreg.).

For assay [3], the system named is TC1a cells after 7- to 10-day culture in alginate beads. Kind of assay: Attachment of TC1a cells after alginate culture to coated protein. The assay is classed as cell-based, human. From the text: An alginate culture system was used to re-differentiate the chondrocytes as described (Robbins and Goldring, 1998; Goldring, 1998; Hauselmann et al., 1994; Bonaventure et al., 1994). Briefly, cells in monolayer culture were trypsinized and washed with phosphate buffered saline. Cells were resuspended in 1.2% solution of Keltone, LVCR alginate (Monsanto, St. Louis, Mo.) in 0.15 M NaCl at a final concentration of 4×10^6 cells/ml. The cell suspension was then passed through a 22 Gauge needle into 102 mM CaCl2. Ten minutes after instant gelation, beads were washed with 0.15 M NaCl, and cultured in 1:1 DME/F-12 containing 10% FBS and 25 μg/ml ascorbate. To prepare cells in the alginate culture system for attachment assays, 7- to 10-day alginate bead cultures were solubilized with 55 mM citrate/0.15 M NaCl, pH 6.0 solution as described (Robbins and Goldring, 1998). Released cells were washed once with PBS and once with HBS/C before they were resuspended in HBS/C containing 1% BSA at a final concentration of 2-2.5×10^5 cells/ml.
Immulon II 96-well plates (DYNEX, Chantilly, Va.) were coated with COMP at various concentrations in HBS/C or HBS containing 5 mM EDTA (HBS/E) at 4° C. overnight. […] The amount of cells attached to each well was quantified using CyQuant kit (Molecular Probes, Eugene, Oreg.). […]

Assay [4] has as its system Human costochondral cartilage cells. The assay can be described thus: Transwell chondrocyte migration assay. Particulars: for chondrocyte migration: coated on underside of transwell membranes, 37° C., four hours. The class given is cell-based. Here is the method:
(§1) Furthermore, as discussed in Example 5, COMP is a motility factor for chondrocyte migration. Human costochondral cartilage cells were used to test if COMP is active in promoting chondrocyte migration. COMP, as well as TSP1 and Vitrogen (Cohesion; Palo Alto, Calif.), at different concentrations, was coated on the underside of membranes of transwell migration assay wells. Chondrocyte cells, prepared as in the attachment assays, were loaded into the wells. Migration was allowed to go on at 37° C. for four hours. Nonmigratory cells remaining inside the wells were removed with cotton swabs. Cells which migrated to the underside of the membranes were quantified using a CyQuant kit.
as §1, with “Human” for “Furthermore, as discussed in Example 5, COMP is a motility factor for chondrocyte migration. Human”, “concentrations, were” for “concentrations, was”, “assay wells (Costar, Cambridge, Mass.).” for “assay wells.”, “Cells that” for “Cells which”, “CyQuant kit (Molecular Probes).” for “CyQuant kit.”

For assay [5] the following is noted: previous reports (Lawler and Simons, 1983; Misenheimer and Mosher, 1995); cited from earlier work.
Setting [6] is: 2 mM Ca2+, ACE, > means no binding observed at any protein concentration, read-out: COMP, Kd in 2 mM Ca^2+.
The mark [7] stands for this setting: 5 mM EDTA, ACE, > means no binding observed at any protein concentration, read-out: COMP, Kd in 5 mM EDTA.

Like-named read-outs stand apart in the source and are kept apart here.

T1 sequence (P49747 21-757): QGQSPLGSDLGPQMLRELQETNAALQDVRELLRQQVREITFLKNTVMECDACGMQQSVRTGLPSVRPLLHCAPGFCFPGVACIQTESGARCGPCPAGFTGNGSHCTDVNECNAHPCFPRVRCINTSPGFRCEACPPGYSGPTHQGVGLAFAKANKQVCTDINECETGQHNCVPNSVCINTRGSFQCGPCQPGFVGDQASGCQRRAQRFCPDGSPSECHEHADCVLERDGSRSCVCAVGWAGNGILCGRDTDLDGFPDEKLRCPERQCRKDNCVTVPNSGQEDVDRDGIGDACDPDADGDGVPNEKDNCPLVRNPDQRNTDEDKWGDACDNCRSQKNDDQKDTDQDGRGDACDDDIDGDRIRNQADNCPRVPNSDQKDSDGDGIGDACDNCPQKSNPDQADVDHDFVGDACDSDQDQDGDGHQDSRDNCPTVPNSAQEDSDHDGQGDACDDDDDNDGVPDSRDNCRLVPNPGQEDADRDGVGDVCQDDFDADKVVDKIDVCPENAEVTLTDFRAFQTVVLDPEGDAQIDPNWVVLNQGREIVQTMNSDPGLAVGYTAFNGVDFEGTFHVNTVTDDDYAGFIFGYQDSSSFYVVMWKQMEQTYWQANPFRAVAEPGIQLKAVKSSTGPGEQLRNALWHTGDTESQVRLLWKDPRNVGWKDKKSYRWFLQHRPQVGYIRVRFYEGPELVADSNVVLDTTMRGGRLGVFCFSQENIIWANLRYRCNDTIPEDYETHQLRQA

A word on the Kd: it is the free concentration of one partner at which half of the binding sites on the other are occupied at equilibrium, for simple one-to-one binding. In the case of Heparin, the Kd at hCOMP (setting [6]) was determined as 89 nM; on hCOMP (setting [7]) it was 450 nM.
For the substance “cartilage oligomeric matrix protein [hCOMP]”, the “calcium ions bound per subunit” value in assay [1] is 11±1 calcium ions. For the same substance, the “effect on attachment of treating with EDTA before coating” value in assay [2] (EDTA before coating) is recorded as “no obvious effect”. In addition, the “protein coating concentration at which cells also spread” value in assay [2] (calcium replete conformation) was not below 5 µg/mL. Also, the “coating concentration at which cells attached and spread” value in assay [2] (dithiothreitol-treated) turned out to be 1 µg/mL. The cell attachment result in assay [2] (protein in calcium replete conformation, coated on wells) is “supported cell attachment in a dose-dependent manner”; in assay [3] (calcium replete form, re-differentiated TC1a cells), “able to support attachment”. Besides, the “effect of reduction after coating on adhesive activity” value in assay [2] (reduced with DTT after coating, especially at low coating concentration) was “increased its adhesive activity”. Besides, the “decrease of level of attachment by chelation of calcium before coating” value in assay [3] (chelation of calcium before coating) is recorded as “approximately 50%”. In addition, the “chemoattractant potency compared with TSP1” value in assay [4] and in assay [4] (same concentration of 10 μg/ml) was “more potent chemoattractant than TSP1” throughout. For the same substance, the chondrocyte migration result in assay [4] is “good chemoattractant”.
In the case of chondroitin-4-sulfate [C4S], the dissociation constant Kd on hCOMP (setting [6]) was 583 nM.
Turning to chondroitin-6-sulfate [C6S], the figures for the Kd on hCOMP (setting [6]) and at hCOMP (setting [7]) were 403 nM and more than 11000 nM, respectively. Moreover, the “binding to hCOMP after EDTA treatment (in words)” value at hCOMP (5 mM EDTA) was “abolished”.
For dermatan sulfate [DS], the Kd at hCOMP (setting [6]) stood at 328 nM.
Consider heparan sulfate [HS], for which, at hCOMP (in the presence of calcium, ACE, read-out: binding to hCOMP (Kd)), the equilibrium dissociation constant (Kd) stood at 1200 nM.
As for human thrombospondin 1 [TSP1], in assay [1], the “calcium ions bound per subunit” value is recorded as 10±2 calcium ions. Further, the chondrocyte migration result in assay [4] is given as “promotes chondrocyte migration”; in assay [4] (listed as TSP 1), “promoted chondrocyte migration”. Moreover, the “calcium ions bound per subunit, previous reports” value in assay [5] is on record as 11-12 calcium ions.
Regarding keratan sulfate [KS], the Kd on hCOMP (setting [6]) is more than 11000 nM. Also, the “binding to hCOMP (in words)” value on hCOMP (in the presence of calcium, ACE) was “did not bind”.
